Patent US20230271959A1, “HETEROCYCLIC COMPOUND AS BCL-2 INHIBITOR” (Beijing Innocare Pharma Tech Co., Ltd., priority 2020, published 2023)

Key:
[1] = target: T1, human recombinant Bcl-2 protein (Homo sapiens, UniProt P10415); test: Fluorescence polarization test for inhibition of BCL-2 binding to FITC-BIM; conditions: 5 nM BCL-2, 5 nM FITC-BIM, read-out: FP BCL-2 IC50
T1 construct: purchased Beijing Yigiao Shenzhou Biotechnology Co., Ltd. 10195-HOSE
Method: Fluorescence polarization assay was used to evaluate the effect of the compounds of the present invention on the biological activity of BCL-2.
The effects of the compounds on the biological activity of BCL-2 were evaluated by determining the effects of the compounds on the binding activity of BCL-2 to leukemia pro-apoptotic protein (BIM) using an affinity assay method based on the principle of fluorescence polarization. The reaction buffer comprises the following components: PBS (pH 7.4, 3 mM Na2HPO4, 155 mM NaCl, 1 mM KH2PO4), 1 mM DTT; human recombinant Bcl-2 protein (Item No. 10195-HOSE) (purchased from Beijing Yigiao Shenzhou Biotechnology Co., Ltd.) was diluted to 5 nM with the reaction buffer; FITC-labeled BIM polypeptide (purchased from Nanjing GenScript Biotechnology Co., Ltd.) was diluted to 5 nM with the reaction buffer.
The compounds were dissolved in 100% DMSO and diluted to 0.1, 1, 10 μM, followed by 4-fold serial dilutions with DMSO to a minimum concentration of 0.0061, 0.061, 0.61 nM, each concentration point was further diluted 50-fold with the reaction buffer.
3 μL of solution containing the compound and 12 μL of solution containing BCL-2 were added to the black 384-well assay plate, mixed well, and incubated at room temperature for 15 minutes. Subsequently, 15 μL of FITC-BIM solution was added, and the reaction mixture was incubated at room temperature for 30 minutes in dark place, and then the fluorescence polarization was detected immediately on an Envision multi-mode reader (Perkin Elmer), with 480 nm as the excitation wavelength and 535 nm as the emission wavelength. In this experiment, the group without BCL-2 protein was used as a negative control (100% inhibition), and the group with BCL-2 protein but without the compound was used as a positive control (0% inhibition). The inhibition percentage of the compound to the affinity of BCL-2 can be calculated using the following equation: […]
(§1) The IC50 of the compound was calculated from 8 concentration points using XLfit (ID Business Solutions Ltd., UK) software by the following equation:
(§2) Y=Bottom+(Top−Bottom)/(1+10^((log IC50−X)*slope factor))
(§3) where Y is the inhibition percentage, X is the logarithm of the concentration of the compound to be tested, Bottom is the maximum inhibition percentage, Top is the minimum inhibition percentage, and slope factor is the slope coefficient of the curve.

[2] = system: RS4;11 cells (acute lymphoblastic leukemia cells); test: RS4;11 cell proliferation, CellTilter-Glo luminescence cell viability assay; type: cell-based; conditions: Homo sapiens, RS4-11; CTG readout after 48 hours
Method: The effects of the compounds of the present invention on the proliferation of RS4;11 cells were evaluated using a luminescence cell viability assay.
A CellTilter-Glo (CTG) Assay Kit is used to detect ATP, a key indicator of the metabolism of living cells, through a unique, highly sensitive and stable luciferase. The luminescent signal generated in the assay is proportional to the number of the viable cells in the medium, therefore the cell proliferation of RS4;11 can be determined.
CellTilter-Glo reagent (Promega, G7572) is composed of CellTilter-Glo lyophilized powder and CellTilter-Glo buffer, and the lyophilized powder can be dissolved in the buffer for use.
RS4;11 cells (ATCC, CRL-1873) were cultured in RPMI1640 complete medium (Thermofisher, 72400-047) containing 10% FBS (GBICO, 10099-141) and 100 units/ml penicillin-streptomycin solution (Thermofisher, 15140122)), when the cells covered 80-90% in the culture vessel, they were digested and dispersed with 0.25% trypsin (containing EDTA) (Thermofisher, 25200056) and then planted in a white 384-well plate (Thermofisher, 164610), and then the 384-well plate was incubated overnight in a 37° C., 5% CO2 incubator. Compounds were dissolved in 100% DMSO and diluted to […], followed by 4-fold serial dilutions with DMSO to a minimum concentration of 0.061 μM, and each concentration point was further diluted 50-fold with FBS-free RPMI1640 medium. If the IC50 of the compound is very low, the initial concentration of the compound can be reduced. After overnight, 3 μL of the compound diluted in the medium was added to each well, and the mixture was gently centrifuged to mix. The group without cells was used as a negative control (100% inhibition), and the group with 0.2% DMSO was used as a positive control (0% inhibition). The 384-well plate was placed in a 37° C., 5% CO2 incubator for further cultivation. After 48 hours, the plate was taken out and equilibrated to room temperature. 15 μl of CTG reagent was added to each well, the plate was shaken gently for 3 minutes to make sure that the cell lysis was carried out thoroughly, then the plate was kept for 10 minutes to stabilize the luminescence signal, then the luminescence signal was read by EnVision (Perkin Elmer).
The inhibition percentage of the compounds to RS4;11 cell proliferation can be calculated using the following equation:
Inhibition Percentage=100−100*(signal compound-signal negative control)/(signal positive control-signal negative control)
as §1
Y=Bottom+(Top−Bottom)/(1+10^((Log IC50−X)*slope factor))
wherein, Y is the inhibition percentage, Bottom is the bottom plateau of the curve (the bottom plateau value of the S-shaped curve), Top is the top plateau of the curve (the top plateau value of the S-shaped curve), and X is the logarithm of the concentration of the compound to be tested.

[3] = target: T2, human recombinant Bcl-XL protein (Homo sapiens, UniProt Q07817); test: Fluorescence polarization test for inhibition of BCL-XL binding to FITC-BIM; conditions: 10 nM BCL-XL, 10 nM FITC-BIM, read-out: FP BCL-XL IC50
T2 construct: purchased Beijing Yiqiao Shenzhou Biotechnology Co., Ltd. 10455-H0SE
Method: Fluorescence polarization assay was used to evaluate the effect of the compounds of the present invention on the biological activity of BCL-XL.
The effects of the compounds on the biological activity of BCL-XL were evaluated by detecting the effects of the compounds on the binding activity of BCL-XL to BIM using an affinity assay method based on the principle of fluorescence polarization. The reaction buffer contains the following components: PBS (pH 7.4, 3 mM Na2HPO4, 155 mM NaCl, 1 mM KH2PO4), 1 mM DTT; human recombinant Bcl-XL protein (Item No. 10455-H0SE) (purchased from Beijing Yiqiao Shenzhou Biotechnology Co., Ltd.) was diluted to 10 nM with reaction buffer; FITC-labeled BIM polypeptide (purchased from Nanjing GenScript Biotechnology Co., Ltd) was diluted to 10 nM with reaction buffer.
The compounds were dissolved in 100% DMSO and diluted to 1 μM, followed by 4-fold serial dilutions in DMSO to a minimum concentration of 0.061 nM, each concentration point was further diluted 50-fold with reaction buffer.
3 μL of solution containing the compound and 12 μL of solution containing BCL-XL were added to the black 384-well assay plate, mixed well, and incubated at room temperature for 15 minutes. Subsequently, 15 μL of FITC-BIM solution was added, and the reaction mixture was incubated at room temperature for 30 minutes in the dark place, and then the fluorescence polarization was detected immediately on an Envision multi-plate reader (Perkin Elmer), with 480 nm as the excitation wavelength and 535 nm as the emission wavelength. In this experiment, the group without BCL-XL protein was used as a negative control (100% inhibition), and the group with BCL-XL protein but without the compound was added as a positive control (0% inhibition). The inhibition percentage of the compound to the affinity of BCL-XL can be calculated using the following equation: […]
as §1, §2, §3

T2 sequence (Q07817 whole entry): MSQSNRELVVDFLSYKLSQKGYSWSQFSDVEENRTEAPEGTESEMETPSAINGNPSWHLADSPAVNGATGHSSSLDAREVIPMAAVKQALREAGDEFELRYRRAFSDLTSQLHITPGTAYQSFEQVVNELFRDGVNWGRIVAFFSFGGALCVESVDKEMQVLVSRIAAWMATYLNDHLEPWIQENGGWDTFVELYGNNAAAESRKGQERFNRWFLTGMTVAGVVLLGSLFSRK
T1 sequence (P10415 whole entry): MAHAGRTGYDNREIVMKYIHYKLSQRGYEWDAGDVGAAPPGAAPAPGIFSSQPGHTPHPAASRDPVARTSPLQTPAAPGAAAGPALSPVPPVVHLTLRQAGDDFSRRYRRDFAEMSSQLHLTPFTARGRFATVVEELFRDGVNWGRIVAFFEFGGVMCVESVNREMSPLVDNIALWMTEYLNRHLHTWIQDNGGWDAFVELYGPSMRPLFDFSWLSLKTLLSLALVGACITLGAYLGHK

Row | Compound | IC50 [1] | IC50 [2] | IC50 [3]
1 | C[C@@H]1CN(c2ccc(C(=O)NS(=O)(=O)c3cc(F)c(NC[C@H]4COCCO4)c([N+](=O)[O-])c3)c(Oc3cnc4[nH]ccc4c3)c2)CCN1CC1=C(c2ccc(Cl)cc2)CC(C)(C)CC1 [Example 6, N-((4-((((S)-1,4-dioxan-2-yl)methyl)amino)-3-fluoro-5-nitrophenyl)sulfonyl)-2-((1H-pyrrolo[2,3-b]pyridin-5-yl)oxy)-4-((R)-4-((4′-chloro-5,5-dimethyl-3,4,5,6-tetrahydro-[1,1′-biphenyl]-2-yl)methyl)-3-methylpiperazin-1-yl) benzamide] | 0.9 nM | 2.37 nM | > 1000 nM
2 | C[C@H]1CN(c2ccc(C(=O)NS(=O)(=O)c3cc(F)c(NCC4CCOCC4)c([N+](=O)[O-])c3)c(Oc3cnc4[nH]ccc4c3)c2)CCN1CC1=C(c2ccc(Cl)cc2)CC(C)(C)CC1 [Example 7, (S)-2-((1H-pyrrolo[2,3-b]pyridin-5-yl)oxy)-(4-4-((4′-chloro-5,5-dimethyl-3,4,5,6-tetrahydro-[1,1′-biphenyl]-2-yl)methyl)-3-methylpiperazin-1-yl)-N-((3-fluoro-5-nitro-4-(((tetrahydro-2H-pyran-4-yl)methyl)amino)phenyl)sulfonyl) benzamide] | > 100 nM | > 500 nM | > 1000 nM
3 | C[C@@H]1CN(CC2=C(c3ccc(Cl)cc3)CC(C)(C)CC2)CCN1c1ccc(C(=O)NS(=O)(=O)c2ccc(NCC3CCOCC3)c([N+](=O)[O-])c2)c(Oc2cnc3[nH]ccc3c2)c1 [Example 8, (R)-2-((1H-pyrrolo[2,3-b]pyridin-5-yl)oxy)-4-(4-((4′-chloro-5,5-dimethyl-3,4,5,6-tetrahydro-[1,1′-biphenyl]-2-yl)methyl)-2-methylpiperazin-1-yl)-N-((3-nitro-4-(((tetrahydro-2H-pyran-4-yl)methyl)amino)phenyl)sulfonyl)benzamide] | 4.55 nM | 6.2 nM | > 1000 nM
4 | C[C@@H]1CN(CC2=C(c3ccc(Cl)cc3)CC(C)(C)CC2)CCN1c1ccc(C(=O)NS(=O)(=O)c2ccc(NCC3CCN(C4COC4)CC3)c([N+](=O)[O-])c2)c(Oc2cnc3[nH]ccc3c2)c1 [Example 9, (R)-2-((1H-pyrrolo[2,3-b]pyridin-5-yl)oxy)-4-(4-((4′-chloro-5,5-dimethyl-3,4,5,6-tetrahydro-[1,1′-biphenyl]-2-yl)methyl)-2-methylpiperazin-1-yl)-N-((3-nitro-4-(((1-(3-oxetan-yl)piperidin-4-yl)methyl)amino)phenyl)sulfonyl) benzamide] | 5.03 nM | 26 nM | > 1000 nM
5 | C[C@@H]1CN(CC2=C(c3ccc(Cl)cc3)CC(C)(C)CC2)CCN1c1ccc(C(=O)NS(=O)(=O)c2cc(F)c(NCC3CCN(C4COC4)CC3)c([N+](=O)[O-])c2)c(Oc2cnc3[nH]ccc3c2)c1 [Example 10, (R)-2-((1H-pyrrolo[2,3-b]pyridin-5-yl)oxy)-4-(4-((4′-chloro-5,5-dimethyl-3,4,5,6-tetrahydro-[1,1′-biphenyl]-2-yl)methyl)-2-methylpiperazin-1-yl)-N-((3-fluoro-5-nitro-4-(((1-(3-oxetanyl)piperidin-4-yl)methyl)amino)phenyl)sulfonyl)benzamide] | 8.21 nM | 68 nM | > 1000 nM
6 | C[C@@H]1CN(CC2=C(c3ccc(Cl)cc3)CC(C)(C)CC2)CCN1c1ccc(C(=O)NS(=O)(=O)c2cc(F)c(NCC3CCOCC3)c([N+](=O)[O-])c2)c(Oc2cnc3[nH]ccc3c2)c1 [Example 11] | 12.8 nM | 42 nM | > 1000 nM
7 | C[C@@H]1CN(CC2=C(c3ccc(Cl)cc3)CC(C)(C)CC2)CCN1c1ccc(C(=O)NS(=O)(=O)c2ccc(NC[C@H]3COCCO3)c([N+](=O)[O-])c2)c(Oc2cnc3[nH]ccc3c2)c1 [Example 12] | 4.89 nM | 16 nM | > 1000 nM
8 | C[C@H]1CN(CC2=C(c3ccc(Cl)cc3)CC(C)(C)CC2)CCN1c1ccc(C(=O)NS(=O)(=O)c2ccc(NCC3CCOCC3)c([N+](=O)[O-])c2)c(Oc2cnc3[nH]ccc3c2)c1 [Example 13, (S)-2-((1H-pyrrolo[2,3-b]pyridin-5-yl)oxy)-4-(4-((4′-chloro-5,5-dimethyl-3,4,5,6-tetrahydro-[1,1′-biphenyl]-2-yl)methyl)-2-methylpiperazin-1-yl)-N-((3-nitro-4-(((tetrahydro-2H-pyran-4-yl)methyl)amino)phenyl)sulfonyl)benzamide] | > 100 nM | > 500 nM | > 1000 nM
9 | C[C@H]1CCC(CN2CCN(c3ccc(C(=O)NS(=O)(=O)c4cc(F)c(NCC5CCOCC5)c([N+](=O)[O-])c4)c(Oc4cnc5[nH]ccc5c4)c3)C[C@H]2C)=C(c2ccc(Cl)cc2)C1 [Example 14] | 2.35 nM | 3.8 nM | > 1000 nM
